Data reported in patent US8404746B2, “Anti-diabetes composition containing chicoric acid and/or one of the metabolites thereof” (Centre National de la Recherche Scientifique (CNRS), priority 2006, dated 2013).

Tested on: L6 rat myocyte cell line
Assay: [3H]-deoxyglucose uptake in the L6 rat myocyte cell line with or without insulin (Example 5, FIG. 5)
Assay type: cell-based
Conditions: insulin at 100 nM alone, p<0.001
Text: The L6 line (a line from the skeletal muscle of Rattus norvegicus provided by ATCC-LCC Promochem) was used. Glucose uptake in the presence of insulin with or without SAT2 was quantified using [^3H]-deoxyglucose. The L6 cell line is cultivated in DMEM (4.5 g/l glucose) supplemented with 10% fetal calf serum (FCS). For the glucose uptake experiments, the cells are inoculated in 12-well plates at a density of 10^4 cells/well. After three days of culture, the cells are differentiated in DMEM with 2% FCS for one week. The day of the experiment, the cells are deprived for 4 hours in DMEM without FCS and containing 0.1% BSA, and then they are incubated for 1 hour in a Krebs-Ringer buffer containing 1 g/l glucose and containing […] insulin with or without SAT2 at a concentration of 50 μg/ml or 100 μg/ml. The cells are then washed in Krebs-Ringer and then incubated in the presence of 0.5 μCi [^3H]-deoxyglucose in 1 ml Krebs-Ringer per well. Glucose uptake by the L6 cells is stopped by three washings in cold PBS and the cells are then lysed in 1 ml of a 0.1 N NaOH solution. Concentration in total protein is estimated by the Bradford method and radioactivity is measured using a β counter. The final results are expressed in cpm/mg/min. […] The effects on glucose uptake are measured in the presence of [^3H]-deoxyglucose for 5 minutes. […]

With Insulin as the substance, how does the “increase in glucose capture” value read?
Its value is 30.4%.
